Source: patent US8426623B2, “Surface modified nanoparticle and preparation method thereof” (National Tsing Hua University, priority 2010, dated 2013)

Test: Anti-oxidative activity of phenol compound (H2O2 scavenging)
Details: substance/H2O2=1, reacted with H2O2 before H2O2 was measured; versus unreacted H2O2 control; FIG. 1
Method: H2O2 was the tested ROS in testing anti-oxidative activity of HPPDA. There are 3 sets in this experiment, including H2O2, HPPDA/H2O2 and ascorbic acid/H2O2, where HPPDA/H2O2=1, ascorbic acid/H2O2=1, and HPPDA, ascorbic were respectively reacted with H2O2 before H2O2 was measured. The control is represented with H2O2 without undergoing any reaction.
Referring to FIG. 1, as the comparison result with control has shown, the concentration of H2O2 was lowered after reacted with ascorbic acid and HPPDA (# for significant difference, p<0.01). Particularly, H2O2 concentration was lowered by ascorbic acid with 30 μM and lowered by HPPDA with 40 μM; this means better H2O2 absorption by HPPDA than ascorbic acid.

SMILES | H2O2 concentration lowered by [µM]
O=C1O[C@H]([C@@H](O)CO)C(O)=C1O [ascorbic acid] | 30
O=C(O)/C=C/C=C/c1ccc(O)cc1 [HPPDA, (2E,4E)-5-(4-hydroxyphenyl)penta-2,4-dienoic acid] | 40
